# Laboratory results reported in patent US8691799B2, “Materials and methods for treatment of cancer and identification of anti-cancer compounds” (priority 2001, dated 2014).
# What was measured:
# B16-F10 melanoma = experiment: Mouse survival, B16-F10 melanoma in C57 black mice; assay type: in vivo; conditions: 1 mg/Kg/day for 25 days, B16-F10 s.c.
# Source text: Antitumor Activity in the Nude Mouse Tumor Xenograft Model. Nude mice and C57 BL-6 black mice (National Cancer Institute, Bethesda, Md.) were maintained in accordance with the Institutional Animal Care and Use Committee (IACUC) procedures and guidelines. v-Src- and oncogenic H-Ras-transformed NIH 3T3, A549, MDA-MB-468 and Calu-1 cells were harvested, resuspended in PBS and injected s.c. into the right and left flank (10×10^6 cells per flank) of 8 week old female nude mice as reported previously (Sun, J. et al. Cancer Res., 1999, 59:4919-4926). Similarly, murine B16-F10 Melanoma cells were injected s.c. into the right and left flank (10^6 cells per flank) of C57 black mice. When tumors reached about 150 mm^3, animals were randomized (five animals per group; two tumors per animal) and dosed i.p. with 0.2 ml once daily. Control animals received DMSO (20%) vehicle whereas treated animals were injected with JSI-124 (1 mg/kg/day) in 20% DMSO in water. The tumor volumes were determined by measuring the length (l) and the width (w) and calculating the volume (V=1w^2/2) as described previously (Sun, J. et al. Cancer Res., 1999, 59:4919-4926). Statistical significance between control and treated animals were evaluated by using Student's t-test. For the mouse survival experiments, C57 BL-6 black mice were implanted s.c. with B16-F10 cells (10^5 to 10^6 cells per flank). On day 5 after implantation the mice were randomized (6 animals per group) and treated with either vehicle or JSI-124 (1 mg/Kg/day) for 25 days. Percent surviving mice was determined by monitoring the death of mice until all mice died. Two experiments of 12 animals each (6 control and 6 treated with JSI-124) were carried out. For statistical analysis: for each of the two experiments, mice receiving JSI-124 were compared to those receiving vehicle control with respect to survival using the permutation log rank test as implemented in the statistical software package, ProcStatXact (p-values are two sided and exact).
# phospho-JNK = experiment: Western blotting for phospho-JNK; assay type: cell-based, human; conditions: A549 and MDA-MB-468 cells, up to 10 μM
# Method: (§1) Western Blotting. Treated cell samples were lysed in 30 mM Hepes, pH 7.5, 10 mM NaCl, 5 mM MgCl2, 25 mM NaF, 1 mM EGTA, 1% Triton-X-100, 10% glycerol, 2 mM sodium orthovanadate, 10 μg/ml aprotinin, 10 μg/ml soybean trypsin inhibitor, 25 μg/ml leupeptin, 2 mM PMSF, and 6.4 mg/ml p-nitrophenylphosphate. Phospho-STAT3, phospho-AKT, phospho-MEK, and phospho-p42/p44 MAPK antibodies were obtained from Cell Signaling Technologies, Cambridge, Mass. Antibodies to STAT3, JAK2, and phospho-INK were purchased from Santa Cruz Biotechnology, Santa Cruz, Calif. Phospho-JAK2 antibody came from Upstate Biotechnology, Lake Placid, N.Y. Membranes were blocked in either 5% milk in PBS, pH 7.4, containing 0.1% Tween-20 (PBS-T) or 1% BSA in TBS, pH 7.5, containing 0.1% Tween-20 (TBS-T). Phospho-specific antibodies (excepting P-MAPK and P-JNK) were incubated in 1% BSA in TBS-T while all other antibodies were diluted in 5% milk in PBS-T for either 2 hr at room temperature or overnight at 4° C. HRP-conjugated secondary antibodies (Jackson ImmunoResearch) were diluted in 5% milk in either PBS-T or TBS-T at 1:1000 dilution for one hour at room temperature. Western blots were visualized using enhanced chemiluminescence as described previously (Blaskovich, M. A. et al. Nat. Biotechnol., 2000, 18:1065-1070).
# JAK2 = experiment: Western blotting for JAK2 protein levels; assay type: cell-based, human; conditions: A549 and MDA-MB-468 cells
# Method: as §1
# Src = Src kinase autophosphorylation assay on immunoprecipitates; assay type: biochemical; conditions: immunoprecipitates from A549, MDA-MB-468 or v-Src/NIH 3T3 cells
# Method: Src Kinase Assay. A549, MDA-MB-468, and v-Src cells were harvested and lysed for 30 min on ice in RIPA150 buffer (10 mM Tris, pH 7.5, 150 mM NaCl, 10% glycerol, 5 mM EDTA, 1% Triton-X-100, 0.1% SDS, 100 μM sodium orthovanadate, 10 μg/ml aprotinin, 10 μg/ml leupeptin, 1 μg/ml antipain). Samples were spun at high speed to clear, then 1000 μg of protein were immunoprecipitated per treatment condition with 2 μg v-Src antibody (Ab-1, Oncogene Research Products, San Diego, Calif.) rocking overnight at 4° C. 25 μl of protein A/G PLUS agarose then was added and rocking continued for 4 hr at 4° C. Samples were spun to collect agarose pellet, and pellet washed three times in RIPA150 buffer, twice in RIPA10 buffer (10 mM Tris, pH 7.5, 10 mM NaCl, 10% glycerol, 5 mM EDTA, 1% Triton-X-100, 0.1% SDS, 100 μM sodium orthovanadate 10 μg/ml aprotinin, 10 μg/ml leupeptin, 1 μg/ml antipain), and three times in 40 mM Tris, pH 7.4. Pellet was then resuspended in 30 μl kinase reaction buffer (20 mM Tris, pH 7.4, 5 mM MgCl2) containing 10 μCi γ-[^32P]ATP. Inhibitors were preincubated for several minutes before the addition of the ATP. Kinase reactions were carried out at room temperature for 15 min. Reaction was stopped with the addition of 2×SDS-PAGE sample buffer. Samples were boiled and run on 10% SDS-PAGE gels. Autophosphorylation results were visualized by autoradiography.
# [1] = test system: STAT3 DNA-binding activity; experiment: Electrophoretic mobility shift assay (EMSA) of nuclear extracts; assay type: cell-based; conditions: nuclear extracts from v-Src/NIH 3T3 and A549 cells
# Method: Nuclear Extract Preparation and Gel Shift Assay. Nuclear extract preparation and electrophoretic mobility shift assay were carried out as previously described (Turkson, J. et al. Mol. Cell Biol., 1999, 19:7519-7528). The ^32P-radiolabeled oligonucleotide probe is hSIE (high affinity sis-inducible element, m67 variant, 5′-[…]-3′) (SEQ ID NO. 1) that binds STAT1 and STAT3.
smiles,measurement,setting,value
"CC(C)(O)/C=C/C(=O)[C@](C)(O)[C@H]1[C@H](O)C[C@@]2(C)[C@@H]3CC=C4[C@@H](C=C(O)C(=O)C4(C)C)[C@]3(C)C(=O)C[C@]12C [JSI-124, cucurbitacin I]",T50 (day until which 50% of mice survived),B16-F10 melanoma,34 days
same,T50 increase versus vehicle,B16-F10 melanoma,13 days
same,day by which all mice died,B16-F10 melanoma,42 days
same,day by which none of the treated mice were dead,B16-F10 melanoma,23 days
same,phospho-JNK levels,phospho-JNK,no inhibitory effect
same,JAK2 protein levels,JAK2,no effect on the protein levels of STAT3 and JAK2
same,Src kinase activity (autophosphorylation) in vitro,Src,not affected
same,STAT3 DNA-binding activity (EMSA),[1],greatly reduced
